According to patent publication US20260209219A1, “SUBSTITUTED TETRAHYDROPYRROLO-PYRIDINONE COMPOUNDS AND THEIR USE IN TREATING MEDICAL CONDITIONS” (Karuna Therapeutics, Inc., priority 2022, published 2026):
pEC50: −log10 of the molar value.

What was measured:
[1] = biological target: T1, hM4 receptors (Homo sapiens, UniProt P08173); test: Human M4 PAM pERK assay; type: cell-based; conditions: CHO cells expressing hM4; with EC20 of acetylcholine (10 nM final)
T1 construct: expressed in transfected cells; host or cells: CHO cells
T1 sequence (P08173 1-479): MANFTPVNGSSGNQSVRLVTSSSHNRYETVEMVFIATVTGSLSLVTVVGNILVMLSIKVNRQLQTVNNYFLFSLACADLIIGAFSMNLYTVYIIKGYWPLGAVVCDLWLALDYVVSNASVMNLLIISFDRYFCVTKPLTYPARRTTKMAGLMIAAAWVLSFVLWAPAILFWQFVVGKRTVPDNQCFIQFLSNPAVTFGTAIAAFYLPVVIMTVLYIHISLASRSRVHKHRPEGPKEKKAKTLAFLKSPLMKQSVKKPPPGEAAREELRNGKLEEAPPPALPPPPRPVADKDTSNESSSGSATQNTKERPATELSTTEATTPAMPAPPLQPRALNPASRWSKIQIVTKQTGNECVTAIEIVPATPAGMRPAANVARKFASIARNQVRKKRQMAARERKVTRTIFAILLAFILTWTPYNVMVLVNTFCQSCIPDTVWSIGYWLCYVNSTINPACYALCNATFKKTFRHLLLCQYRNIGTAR
Method: (§1) Chinese hamster ovary (CHO) cells expressing either hM4 or rM4 receptors were frozen in assay ready vials (5×10^6 cells/vial) after bulking-up in culture. The day before an assay, vial(s) were thawed and cells seeded in 384 well white proxiplates at 1000/well for hM4 cells and at 2000/well for rM4 cells, in 10 μL of growth media (Hams/F12 with glutamax and 10% FCS) and incubated overnight at 37° C./5% CO2.
(§2) On the following morning, the growth media was removed by ‘flicking out’ over a bin, patting the inverted plate onto tissue, and then replacing with 10 μL of wash media (Hams/F12 with glutamax and 8 mM HEPES, NB: serum free). Then, the wash media was removed in the same way and replaced with 8 μL/well of the serum free media. Plates were then re-incubated for a further 4 hours at 37° C./5% CO2.
(§3) Compounds for testing were solubilized to 10 mM in DMSO and compound addition plates, consisting of ten-point concentration response curves (CRC) in duplicate points (10 μM top concentration, ½ log dilution series), were prepared by acoustic dispensing and the compound management group.
(§4) After the 4-hour incubation in serum free media, a 4 μL aliquot of the 3× compound solution containing an EC20 of acetylcholine (10 nM final concentration) was added to the cell plate using a 384 well plate to plate transfer. Then, the plate lid was replaced, and the cells incubated for 5 mins at 37° C./5% CO2. Following this final incubation, all cellular processes were stopped by the addition of 4 μL/well of lysis and blocking buffer and plates were incubated for 30 minutes at RT on an orbital shaker (gentle setting). Then, a final addition of 4 μL/well of antibody detection mix, containing both the Europium-Cryptate (donor) and d2 (acceptor) tagged detection components, was added followed by a further 2-hour incubation at RT, and then the plate was read using a TR-FRET (time resolved fluorescence resonance energy transfer) based protocol.

[2] = biological target: T2, rM4 receptors (Rattus norvegicus, UniProt P08485); test: Rat M4 PAM pERK assay; type: cell-based; conditions: CHO cells expressing rM4; with EC20 of acetylcholine (10 nM final)
T2 construct: expressed in transfected cells; host or cells: CHO cells
T2 sequence (P08485 1-478): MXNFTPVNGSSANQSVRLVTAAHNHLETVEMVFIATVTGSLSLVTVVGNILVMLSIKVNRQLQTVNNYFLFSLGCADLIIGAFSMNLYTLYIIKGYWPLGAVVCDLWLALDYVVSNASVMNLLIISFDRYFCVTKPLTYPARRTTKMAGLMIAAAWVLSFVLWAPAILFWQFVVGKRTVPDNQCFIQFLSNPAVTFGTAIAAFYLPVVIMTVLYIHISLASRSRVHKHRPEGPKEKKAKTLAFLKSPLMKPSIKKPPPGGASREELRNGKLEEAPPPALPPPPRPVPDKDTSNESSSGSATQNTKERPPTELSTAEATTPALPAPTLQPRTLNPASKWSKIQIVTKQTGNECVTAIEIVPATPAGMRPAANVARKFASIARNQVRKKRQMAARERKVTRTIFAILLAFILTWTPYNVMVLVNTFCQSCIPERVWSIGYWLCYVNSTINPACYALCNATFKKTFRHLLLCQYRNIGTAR
Method: as §1, §2, §3, §4

[3] = biological target: T3, human M4 receptor (Homo sapiens, UniProt P08173); test: M4 GTPγS PAM assay; type: biochemical; conditions: membranes of CHO-K1 cells stably expressing human M4; EC20 acetylcholine 40 nM
T3 construct: expressed in transfected cells; host or cells: CHO-K1 cells (membrane preparation)
T3 sequence (P08173 1-479): T1 sequence (P08173 1-479)
Method: The M4 GTPγS PAM method was used. Membranes were prepared for GTPgS binding assays from CHO-K1 cells stably expressing human M4 receptor. Briefly, cells were grown in 5-layer cell culture flasks. Cells were washed with 50 mL of PBS and then dissociated with 0.05% trypsin. Dissociated cells were then collected by centrifugation at 650×g for 8 minutes at 4° C. Pellets were washed again in PBS by centrifugation and resuspended in 30 mL of 20 mM HEPES, 10 mM EDTA, pH 7.4. After sitting on ice for 30 min, membranes were collected by centrifugation at 50000×g for 15′ at 4° C., resuspended in 30 mL of 20 mM HEPES, 0.1 mM EDTA, pH 7.4 and collected again by centrifugation. Pellets were then washed twice by centrifugation in 30 mL of 20 mM HEPES, pH 7.4, and stored at −80° C. until the day of the assay. On the day of the assay, pellets were thawed on ice and resuspended in 1 mL of 20 mM HEPES, pH 7.4, 10 mM MgCl2, 100 mM NaCl using dounce homogenization. Membrane protein concentration is determined by BCA protein assay (Promega, Madison, WI) according to Promega guidelines.
On the day of the assay, serial dilutions of test PAM compounds were brought up in assay buffer (20 mM HEPES, 10 mM MgCl2, 100 mM NaCl) at 4× final assay concentration. […] of membrane homogenates (containing […] of membrane protein) were prepared in assay buffer supplemented with GDP at 4× final assay concentration (final assay concentration of GDP is 5 μM for M2 and 0.1 μM for M4) and dispensed into 96 well polypropylene, U-bottom Greiner plates. […] of vehicle or test PAM compound at 4× of final assay concentration diluted in the assay buffer were added to membrane and plates are incubated for 10-15 minutes at room temperature with gentle shaking. Then, […] of EC20 acetylcholine in assay buffer at 4× final assay concentration was added to assay plates (EC20 final assay concentrations was 40 nM for human M4).
Plates were then incubated, with shaking, for an additional 10-15 minutes. 25 mL of 0.4 nM ^35S-GTP (Perkin Elmer, Waltham, MA) in assay buffer was added to assay mixtures. The binding reaction is left on the shaker for 1 hour at room temperature. Membranes in assay reactions were then transferred to GF/C filter plates (Unifilter, Perkin Elmer) and washed three times using a FilterMate Harvester (Perkin Elmer) with cold assay buffer containing no GDP. Filter plates were then dried at 40° C. overnight followed by the addition of […] of Beta Plate Scintillation liquid. Plates are top and bottom sealed before being read on TopCount scintillation counter (Perkin Elmer, Waltham, MA).

| Compound | pEC50 [1] | pEC50 [2] | pEC50 [3] |
| --- | --- | --- | --- |
| COc1c2c(n(C)c(=O)c1C)CN(C(=O)CC1CC1c1ccc(C(F)(F)F)cc1)C2 (single isomer, unassigned) [Compound I-29, 4-Methoxy-1,3-dimethyl-6-([trans-2-(2-(4-(trifluoromethyl)phenyl)cyclopropyl)]acetyl)-1,5,6,7-tetrahydro-2H-pyrrolo[3,4-b]pyridin-2-one] | 6.30 to 7.00 | 6.30 to 7.00 | > 7.00 |
| Cc1c2c(n(C)c(=O)c1Cl)CN(C(=O)CC1CC1c1ccc(C(F)(F)F)cc1)C2 (single isomer, unassigned) [Compound I-32] | 5.70 to 6.30 | 5.70 to 6.30 | 6.30 to 7.00 |
| Cc1c2c(n(C)c(=O)c1Cl)CN(C(=O)CC1CC1c1ccc(C(F)(F)F)cc1)C2 (single isomer, unassigned) [Compound I-33] | > 7.00 | > 7.00 | > 7.00 |
| Cc1c2c(n(C)c(=O)c1Cl)CN(C(=O)CC1CC1c1cc(F)cc(F)c1)C2 (single isomer, unassigned) [Compound I-35] | 5.70 to 6.30 | < 5.70 | < 5.70 |
| Cc1c2c(n(C)c(=O)c1Cl)CN(C(=O)CC1CC1c1cc(F)cc(F)c1)C2 (single isomer, unassigned) [Compound I-36] | > 7.00 | > 7.00 | > 7.00 |
| Cc1cc(=O)n(C)c2c1CN(C(=O)CC1CC1c1ccc(C(F)(F)F)nc1)C2 (stereo not drawn) [Compound I-3] | 5.70 to 6.30 | 5.70 to 6.30 | 5.70 to 6.30 |
| Cc1cc(=O)n(C)c2c1CN(C(=O)CC1CC1)C2 [Compound I-10] | 5.70 to 6.30 | < 5.70 | 5.70 to 6.30 |
| Cc1cc(=O)n(C)c2c1CN(C(=O)CC1CC1c1cccc(C3COC3)c1)C2 (stereo not drawn) [Compound I-12] | 6.30 to 7.00 | 5.70 to 6.30 | < 5.70 |
| Cc1c2c(n(C)c(=O)c1C)CN(C(=O)CC1CC1c1cc(F)cc(F)c1)C2 (stereo not drawn) [Compound I-21] | > 7.00 | 6.30 to 7.00 | > 7.00 |
| Cc1c2c(n(C)c(=O)c1C)CN(C(=O)CC1CC1c1cccc(F)c1F)C2 (stereo not drawn) [Compound I-24] | > 7.00 | 6.30 to 7.00 | > 7.00 |
| COc1c2c(n(C)c(=O)c1C)CN(C(=O)CC1CC1c1ccc(C(F)(F)F)cc1)C2 (stereo not drawn) [Compound I-30] | < 5.70 | 5.70 to 6.30 | < 5.70 |
| Cc1c2c(n(C)c(=O)c1Cl)CN(C(=O)CC1CC1c1cc(F)cc(F)c1)C2 (stereo not drawn) [Compound I-34] | > 7.00 | > 7.00 | > 7.00 |
